Measurements reported in patent US9963467B2, “Boronic acid derivatives and therapeutic uses thereof” (Rempex Pharmaceuticals, Inc., priority 2014, dated 2018).

Assays:
[1] = Serum stability of prodrugs, human serum; assay type: in vitro ADME; details: human serum; for Measured Initial Conc. in Serum: 37 degrees; for Measured Initial Conc. in Serum / Conc. at t = 2 h / Conc. at t = 4 h: theoretical initial conc. 40 ug/mL
Experimental: (§1) Prodrug strategy is one of the ways to achieve or increase oral bioavailability for therapeutic drugs. […] After a prodrug molecule is absorbed into systemic circulation, it should be hydrolyzed in the blood in order to release the active form. Hydrolysis of several prodrugs by rat and human serum were evaluated.
(§2) For all stability experiments the test compounds were treated with rat or human serum in Eppendorf tubes. Typically, 992 μl of serum was prewarmed at 37 degrees for 2 minutes and then 8 μl of a compound (at 5 mg/ml, 125×) was added to it to get a final concentration of […] and immediately mixed. Alternatively, serum stability might be tested at 1 mg/ml. […] After vortexing for 30 seconds, the tube was centrifuged in a microcentrifuge for 10 minutes at 15K rpm. Next, 100 μl of the supernatant was combined with 600 μl of water and injected on LC-MS using 0.1% formic acid in water for mobile phase A and 0.1% formic acid in methanol for mobile phase B on an ACE 5 C18 2.1×100 mm column with a 10 μL injection. The flow rate and gradient were adjusted as needed to give the desired resolution and run time. The pH of the mobile phase was adjusted if needed to improve the chromatography.
(§3) The time course of both the disappearance of a prodrug and the appearance of the active form of that prodrug is presented in Table 6 and Table 7. The active metabolites for all of the listed prodrugs are corresponding parent drugs

[2] = Serum stability of prodrugs, rat serum; assay type: in vitro ADME; details: for Measured Initial Conc. in Serum: 37 degrees
Experimental: as §1, §2, §3

[3] = Serum stability of prodrugs, human serum; assay type: in vitro ADME; details: theoretical initial conc. 20 ug/mL
KP1009 (CTX-M-15) = experiment: Tigemonam potentiation (MPC@4), KP1009; assay type: cell-based; details: BLI with tigemonam at 4 μg/mL
Pa AmpC = Pa AmpC (Pseudomonas aeruginosa, UniProt P24735); experiment: Ki, nitrocefin cleavage by purified enzyme, Pa AmpC; assay type: biochemical; details: nitrocefin reporter substrate; read-out: Ki (Pa AmpC, NCF)
Experimental: Ki values of inhibition of purified class A, C and D enzymes were determined spectrophotometrically using nitrocefin as reporter substrate. Purified enzymes were mixed with various concentrations of inhibitors in reaction buffer and incubated for 10 min at room temperature. Nitrocefin was added and substrate cleavage profiles were recorded at 490 nm every 10 sec for 10 min. These experiments confirmed that the described compounds are inhibitors with a broad-spectrum of activity towards various β-lactamases.

ec302 (TEM-10) [4] = experiment: Aztreonam potentiation (MPC@4), ec302; assay type: cell-based; details: BLI with aztreonam at 4 μg/mL
KP1004 (KPC-2) = experiment: Biapenem potentiation (MPC@1), KP1004; details: BLI with biapenem at 1 μg/mL
ECL1002 [5] = experiment: Aztreonam potentiation (MPC@4), ECL1002; assay type: cell-based; details: BLI with aztreonam at 4 μg/mL
EC1010 (CMY-6) [6] = experiment: organism not typed; assay type: cell-based
CTX-M-14 = CTX-M-14 (Escherichia coli, UniProt Q9L5C7); experiment: Ki, nitrocefin cleavage by purified enzyme, CTX-M-14; assay type: biochemical; details: nitrocefin reporter substrate; read-out: Ki (CTX-M-14, NCF)
Experimental: (§4) Purified enzymes were mixed with various concentrations of inhibitors in reaction buffer and incubated for 10 min at room temperature. Nitrocefin was added and substrate cleavage profiles were recorded at 490 nm every 10 sec for 10 min.

ec308 (SHV-5) = experiment: Tigemonam potentiation (MPC@4), ec308; assay type: cell-based
KP1086 (OXA-48) = experiment: Biapenem potentiation (MPC@1), KP1086; details: BLI with biapenem at 1 μg/mL
OXA-48 = OXA-48 (Klebsiella pneumoniae, UniProt Q6XEC0); experiment: Ki, nitrocefin cleavage by purified enzyme, OXA-48; assay type: biochemical; details: nitrocefin reporter substrate; read-out: Ki (OXA-48, NCF)
Experimental: as §4

ec302 (TEM-10) [7] = experiment: Tigemonam potentiation (MPC@4), ec302; assay type: cell-based
EC1010 (CMY-6) [8] = experiment: Tigemonam potentiation (MPC@4), EC1010; assay type: cell-based; details: BLI with tigemonam at 4 μg/mL
KPC-2 = KPC-2 (Klebsiella pneumoniae, UniProt Q9F663); experiment: Ki, nitrocefin cleavage by purified enzyme, KPC-2; assay type: biochemical; details: nitrocefin reporter substrate; read-out: Ki (KPC-2, NCF)
Experimental: as §4

KP1005 (CTX-M-14) = experiment: Tigemonam potentiation (MPC@4), KP1005; assay type: cell-based; details: BLI with tigemonam at 4 μg/mL
P99 = P99 (Enterobacter cloacae, UniProt P05364); experiment: Ki, nitrocefin cleavage by purified enzyme, P99; assay type: biochemical; details: nitrocefin reporter substrate; read-out: Ki (P99, NCF)
Experimental: as §4

ECL1002 [9] = experiment: Tigemonam potentiation (MPC@4), ECL1002; assay type: cell-based; details: BLI with tigemonam at 4 μg/mL
KP1010 (SHV-12) = experiment: Tigemonam potentiation (MPC@4), KP1010; assay type: cell-based
SHV-12 = SHV-12 (Klebsiella pneumoniae, UniProt P0AD64, E235K/G234S/L31Q); experiment: Ki, nitrocefin cleavage by purified enzyme, SHV-12; assay type: biochemical; details: nitrocefin reporter substrate; read-out: Ki (SHV-12, NCF)
Experimental: as §4

[10] = theoretical initial conc. 40 ug/mL
[11] = prodrug, theoretical initial conc. 40 ug/mL
[12] = prodrug, theoretical initial conc. 20 ug/mL

Sequence of SHV-12 (P0AD64 22-286 L31Q/G234S/E235K): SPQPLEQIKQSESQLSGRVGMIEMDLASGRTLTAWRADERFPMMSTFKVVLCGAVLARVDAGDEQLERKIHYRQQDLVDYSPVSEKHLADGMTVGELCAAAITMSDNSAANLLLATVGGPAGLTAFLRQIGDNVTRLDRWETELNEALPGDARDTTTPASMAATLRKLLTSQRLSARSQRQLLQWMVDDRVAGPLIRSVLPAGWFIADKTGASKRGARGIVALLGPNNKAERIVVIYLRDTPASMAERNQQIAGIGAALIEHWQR
Sequence of OXA-48 (Q6XEC0 23-265, looked up, species assumed): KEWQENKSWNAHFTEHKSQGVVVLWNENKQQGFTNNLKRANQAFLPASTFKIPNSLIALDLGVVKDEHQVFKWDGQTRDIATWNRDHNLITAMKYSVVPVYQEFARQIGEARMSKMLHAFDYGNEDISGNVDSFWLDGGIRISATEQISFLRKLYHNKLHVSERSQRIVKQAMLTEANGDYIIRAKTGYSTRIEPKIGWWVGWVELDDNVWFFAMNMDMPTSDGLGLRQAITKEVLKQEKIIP
Sequence of KPC-2 (Q9F663 25-293, looked up, species assumed): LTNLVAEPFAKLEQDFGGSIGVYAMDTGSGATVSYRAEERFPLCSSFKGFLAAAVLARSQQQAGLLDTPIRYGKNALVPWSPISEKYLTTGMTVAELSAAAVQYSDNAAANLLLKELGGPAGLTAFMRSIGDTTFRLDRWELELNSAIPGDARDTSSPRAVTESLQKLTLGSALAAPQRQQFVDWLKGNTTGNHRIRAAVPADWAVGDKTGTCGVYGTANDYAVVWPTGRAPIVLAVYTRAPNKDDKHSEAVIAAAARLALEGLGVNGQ
Sequence of P99 (P05364 21-381): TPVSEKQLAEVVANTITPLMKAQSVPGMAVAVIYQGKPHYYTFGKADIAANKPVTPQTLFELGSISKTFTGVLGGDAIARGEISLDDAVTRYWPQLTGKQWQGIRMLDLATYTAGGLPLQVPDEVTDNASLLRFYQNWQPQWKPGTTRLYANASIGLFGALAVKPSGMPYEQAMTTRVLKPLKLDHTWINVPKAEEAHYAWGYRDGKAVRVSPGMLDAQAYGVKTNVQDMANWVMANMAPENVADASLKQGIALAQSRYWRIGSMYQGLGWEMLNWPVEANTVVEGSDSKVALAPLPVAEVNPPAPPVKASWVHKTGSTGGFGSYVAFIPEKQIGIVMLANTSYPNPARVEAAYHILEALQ
Sequence of CTX-M-14 (Q9L5C7 29-291): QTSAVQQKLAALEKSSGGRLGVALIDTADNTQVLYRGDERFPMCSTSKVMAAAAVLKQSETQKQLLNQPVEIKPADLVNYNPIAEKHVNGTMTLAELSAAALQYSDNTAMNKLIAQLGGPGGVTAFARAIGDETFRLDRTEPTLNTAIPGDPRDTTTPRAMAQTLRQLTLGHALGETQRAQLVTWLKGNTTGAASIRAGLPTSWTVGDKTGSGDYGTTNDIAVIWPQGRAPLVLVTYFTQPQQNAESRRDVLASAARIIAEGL
Sequence of Pa AmpC (P24735 27-397): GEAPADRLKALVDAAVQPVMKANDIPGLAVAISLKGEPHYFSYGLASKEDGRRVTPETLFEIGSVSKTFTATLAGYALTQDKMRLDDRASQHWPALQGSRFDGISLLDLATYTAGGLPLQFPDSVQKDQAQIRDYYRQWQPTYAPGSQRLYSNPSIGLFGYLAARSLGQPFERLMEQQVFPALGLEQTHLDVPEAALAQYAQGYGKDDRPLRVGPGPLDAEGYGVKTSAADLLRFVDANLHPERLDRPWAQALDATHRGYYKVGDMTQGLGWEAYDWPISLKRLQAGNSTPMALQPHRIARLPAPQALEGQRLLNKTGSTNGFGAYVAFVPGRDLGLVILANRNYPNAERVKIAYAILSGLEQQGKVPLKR

SMILES: CSCC(=O)N[C@H]1Cc2ccc(F)c(C(=O)OCOC(C)=O)c2OB1O [Compound 14, (R)-acetoxymethyl 7-fluoro-2-hydroxy-3-(2-(methylthio)acetamido)-3,4-dihydro-2H-benzo[e][1,2]oxaborinine-8-carboxylate]
- Measured Initial Conc. in Serum [1]: 36.8 µg/mL
- Conc. at t = 2 h ([1]; prodrug): 5000 ng/mL
- Conc. at t = 4 h ([1]; prodrug): 1130 ng/mL
- Measured Initial Conc. in Serum [2, 10]: 39.6 µg/mL
- Conc. at t = 2 h [2, 11]: BQL
- Conc. at t = 4 h [2, 11]: BQL

SMILES: CSCC(=O)N[C@H]1Cc2ccc(SC)c(C(=O)OCOC(=O)C(C)C)c2OB1O [Compound 44, 2-methylpropanoyloxymethyl(3R)-2-hydroxy-7-methylsulfanyl-3-[(2-methylsulfanylacetyl)amino]-3,4-dihydro-1,2-benzoxaborinine-8-carboxylate]
- Measured Initial Conc. in Serum ([3]; 37 degrees): 18.6 µg/mL
- Conc. at t = 1 hr ([3]; prodrug): 18100 ng/mL
- Conc. at t = 3 hr [1, 12]: 12500 ng/mL
- Measured Initial Conc. in Serum ([2]; theoretical initial conc. 20 ug/mL): 18.4 µg/mL
- Conc. at t = 1 hr [2, 12]: 16000 ng/mL
- Conc. at t = 3 hr [2, 12]: 5210 ng/mL

SMILES: COc1ccc2c(c1C(=O)O)OB(O)[C@@H](NC(=O)CC(N)=O)C2 [Compound 27, (R)-3-(3-amino-3-oxopropanamido)-2-hydroxy-7-methoxy-3,4-dihydro-2H-benzo[e][1,2]oxaborinine-8-carboxylic acid]
- TIG MPC4 CTX-M-15 KP1009 (KP1009 (CTX-M-15)): X (MIC of less than 1 μg/mL)
- Ki (Pa AmpC): > 10 nM
- AZT MPC4 TEM-10 ec302 (ec302 (TEM-10) [4]): Y (MIC of 1 μg/mL to 10 μg/mL)
- BPM MPC1 KP1004 KPC-2 (KP1004 (KPC-2)): X (MIC of less than 1 μg/mL)
- AZT MPC4 ECL1002 (ECL1002 [5]): Y (MIC of 1 μg/mL to 10 μg/mL)
- AZT MPC4 CMY-6 EC1010 (EC1010 (CMY-6) [6]): Y (key: X: MIC of less than 1 ng/mL; Y: MIC of 1 μg/mL to 10 μg/mL; Z: MIC of greater than 10 μg/mL)
- Ki (CTX-M-14): < 1 nM
- TIG MPC4 SHV-5 ec308 (ec308 (SHV-5)): X (key: X: MIC of less than 1 μg/mL; Y: MIC of 1 μg/mL to 10 μg/mL; Z: MIC of greater than 10 μg/mL)
- BPM MPC1 OXA-48 KP1086 (KP1086 (OXA-48)): Y (MIC of 1 μg/mL to 10 μg/mL)
- Ki (OXA-48): < 1 nM
- TIG MPC4 TEM-10 ec302 (ec302 (TEM-10) [7]): Z (key: X: MIC of less than 1 ng/mL; Y: MIC of 1 μg/mL to 10 μg/mL; Z: MIC of greater than 10 μg/mL)
- TIG MPC4 CMY-6 EC1010 (EC1010 (CMY-6) [8]): X (MIC of less than 1 μg/mL)
- Ki (KPC-2): > 10 nM
- TIG MPC4 CTX-M-14 KP1005 (KP1005 (CTX-M-14)): Y (MIC of 1 μg/mL to 10 μg/mL)
- Ki (P99): > 10 nM
- TIG MPC4 ECL1002 (ECL1002 [9]): X (MIC of less than 1 μg/mL)
- TIG MPC4 SHV-12 KP1010 (KP1010 (SHV-12)): X (key: X: MIC of less than 1 μg/mL; Y: MIC of 1 μg/mL to 10 μg/mL; Z: MIC of greater than 10 μg/mL)
- Ki (SHV-12): < 1 nM

SMILES: CSCC(=O)N[C@H]1Cc2ccc(F)c(C(=O)OCOC(=O)OC(C)C)c2OB1O [Compound 15, (R)-(isopropoxycarbonyloxy)methyl 7-fluoro-2-hydroxy-3-(2-(methylthio)acetamido)-3,4-dihydro-2H-benzo[e][1,2]oxaborinine-8-carboxylate]
- Measured Initial Conc. in Serum [1]: 33.2 µg/mL
- Conc. at t = 2 h ([1]; prodrug): 12800 ng/mL
- Conc. at t = 4 h ([1]; prodrug): 5320 ng/mL
- Measured Initial Conc. in Serum [2, 10]: 30.6 µg/mL
- Conc. at t = 2 h [2, 11]: BQL
- Conc. at t = 4 h [2, 11]: BQL
